The test system of the series is bacteria. As to the kind of experiment: Antibacterial effect of antibiotics after γ-radiation. The following applies: γ-radiation with 25 kGray. As to the method: In the pharmaceuticals industry are sought γ-sterilized media for use in clean room areas and isolators. These clean room areas must be monitored for microbial contamination, and the product (that is, the microbiological nutrient medium) itself, with which this monitoring is carried out, should not introduce any contamination, but be sterile. The microbiological media are not completely sterile after autoclaving and filling into, for example, Petri dishes or other agar carriers, but have contamination rates in the order of magnitude of 0.1 to approx. 1%. Only as a result of an additional γ-sterilization (or β-sterilization) with high-energy radiation are killed the residual existing contaminations and a sterile product is obtained. However, many antibiotics are destroyed as a result of the γ-sterilization, so that afterward in selective media for yeasts and fungi whose selectivity is based on the addition of antibiotics, this selectivity no longer exists.

penicillin: the “antibacterial effect after γ-radiation” value is reported as “essentially reduced”.

As to `O=C(N[C@H](CO)[C@H](O)c1ccc([N+](=O)[O-])cc1)C(Cl)Cl` [chloramphenicol], the “antibacterial effect after γ-radiation” value is listed as “completely destroyed”.

The record behind these values is patent US6908745B2, “Gamma sterilizable culture medium for the identification of yeasts and fungi” (Biotest AG, priority 2001, dated 2005).
